Source: patent publication US12282015B2, “Systems and methods for testing and screening using compound bound substrates” (Cerus Corporation, priority 2016, dated 2025)

Tested on: human RBC's
Assay: Binding of compound to RBC substrate and stability of the surface-bound moiety, anti-acridine antibody staining by flow cytometry (MFI)
Format: cell-based
Conditions: at 37° C.; 0.2 mM compound, 2.0 mM GSH, overnight; mAb and polyAb staining
Method: A study was performed to assess binding to RBC substrate by the compound 5-220, which is a non-frangible analog of S-303. This study also compared the stability of the surface bound moiety of the 5-220 compound to the stability of a similarly bound frangible S-303. More specifically, glutathione (GSH) quencher and the 5-220 compound were added to human RBC's substrate at concentrations of 2.0 mM and 0.2 mM, respectively, and then incubated overnight at 37° C. or 4° C. For comparison, GSH quencher and the frangible S-303 compound were similarly added to human RBC's at concentrations of 2.0 mM and 0.2 mM, respectively, and incubated overnight at 37° C. or 4° C. Both the non-frangible 5-220 and frangible S-303 compounds comprise an acridine moiety as part of their structures. Following incubation, the GSH/S-220 and GSH/S-303 treated RBC's were stained with either a mouse monoclonal (mAb) or rabbit polyclonal (polyAb) anti-acridine antibody (also at 4° C. or 37° C.), and the samples analyzed for antibody binding by flow cytometry using standard methods (quantitated as MFI). Both the mAb and polyAb anti-acridine antibodies were generated using the compound 5-197 for immunization.

O=C(CCNc1c2ccccc2nc2ccccc12)OCCN(CCCl)CCCl [S-303, β-alanine, N-(acridin-9-yl), 2-[bis(2-chloroethyl)amino]ethyl ester]
stability of binding to RBC's: less stable than 5-220 binding to RBC's
